{
  "source": "patent US8093262B2",
  "about": "(priority 2005, dated 2012)",
  "key": {"[1]": {"test_system": "mice", "settings": "established antiepileptic drugs; cited from earlier work"}, "[2]": {"test_system": "mice", "assay": "Subcutaneous Metrazol (SCMET / scPTZ) seizure test, mice, i.p.", "assay_type": "in vivo", "procedure": "(§1) Seizure testing was carried out as follows."}, "[3]": {"test_system": "mice", "assay": "Maximal Electroshock (MES) seizure test, mice, i.p.", "assay_type": "in vivo", "settings": "1 mg/kg", "procedure": "This toxicity profile is generally not observed in humans. Thus, a higher relative dose of a huperzine compound is tolerated in humans compared to rodents.\nas §1"}, "[4]": {"test_system": "patients", "settings": "human, in vivo; cited from earlier work"}, "[5]": {"test_system": "rats", "assay": "Toxicity (TOX) / minimal motor impairment, rats", "assay_type": "in vivo", "settings": "for Behavioral motor impairment, animals affected: rat, in vivo, po", "procedure": "(§2) Peak anticonvulsant activity was observed one-hour after p.o. administration of 1 mg/kg."}, "[6]": {"assay_type": "physicochemical"}, "[7]": {"test_system": "Swiss Webster NIH mice", "assay": "Formalin test for antinociceptive activity (paw licking/biting)", "assay_type": "in vivo", "settings": "1 mg/kg i.p.", "procedure": "The formalin test for antinociceptive activity is described in numerous publications, e.g., Hunskaar, S., O. B. Fasmer, and K. Hole, J. Neurosci. […] The formalin test is accepted as an art recognized model of persistent clinical pain.\nMale Swiss Webster NIH mice (20-30 g; Harlan, San Diego, Calif.) were used in the experiments described herein. Food was withdrawn on the day of experiment. Mice were placed in Plexiglass jars for at least 1 hour to accommodate to the environment. Following the accommodation period, mice were weighed and given either a huperzine compound administered intraperitoneal (i.p.) or oral (p.o.), or the appropriate volume of vehicle (10% Tween-80). Fifteen minutes after the i.p. dosing, and 30 minutes after the p.o. dosing mice were injected with formalin (20 μL of 5% formaldehyde solution in saline) into the dorsal surface of the right hind paw. Mice were transferred to the Plexiglass jars and monitored for the amount of time spent licking or biting the injected paw. Periods of licking and biting were recorded in 5 minute intervals for 40 minutes after the formalin injection. […] The early phase (acute) of the formalin response is measured as licking/biting between 0-5 minutes, and the late phase (inflammatory) is measured from 10-40 minutes. Differences between vehicle and drug treated groups are analyzed by one-way analysis of variance (ANOVA). […]"}, "[8]": {"test_system": "rats", "assay": "Subcutaneous Metrazol (SCMET / scPTZ) seizure test, rats, oral", "assay_type": "in vivo", "procedure": "as §2"}, "[9]": {"test_system": "mice", "assay": "Toxicity model (TOX), rotorod, mice", "assay_type": "in vivo", "settings": "for TOX observation code: i.p.; for TOX N/F (mice showing an effect / mice tested): mouse, in vivo, ip"}, "[10]": {"test_system": "mice", "assay_type": "in vivo", "settings": "for N/F, Time to Peak Effect: IP, 32 mA, 0.83 mg/kg; for COMMENT (observed effects): ip", "procedure": "as §1"}},
  "note": "Read-outs that look alike come from different tables or passages of the source.",
  "data": [
    {"smiles": "Nc1nnc(-c2cccc(Cl)c2Cl)c(N)n1", "note": "[lamotrigine]", "values": [
      {"measurement": "Efficacy in the 6 Hz psychomotor seizure model", "setting": "[1]", "value": "limited efficacy"}
    ]},
    {"smiles": "C/C=C1\\[C@H]2C=C(C)C[C@]1(N)c1ccc(=O)[nH]c1C2", "note": "[Huperzine A]", "values": [
      {"measurement": "SCMET N/F (mice showing an effect / mice tested)", "setting": "[2]; 1 mg/kg SOL, 0.5 h", "value": "3/5"},
      {"measurement": "SCMET N/F (mice showing an effect / mice tested)", "setting": "[2]; 3 mg/kg SUS, 0.5 h", "value": "1/1"},
      {"measurement": "SCMET N/F (mice showing an effect / mice tested)", "setting": "[2]; 10 mg/kg SUS, 4.0 h", "value": "1/1"},
      {"measurement": "Protection in the mouse MES test (FIG. 1)", "setting": "[3]", "value": "time-dependent protection"},
      {"measurement": "Adverse effects in patients", "setting": "[4]", "value": "adverse effects were noted infrequently"},
      {"measurement": "Toxicity", "setting": "[5]; oral, 1 mg/kg, any of the animals", "value": "no toxicity"},
      {"measurement": "Behavioral motor impairment, animals affected", "setting": "[5]; 2 mg/kg", "value": 75, "unit": "%"},
      {"measurement": "Behavioral motor impairment, animals affected", "setting": "[5]; 4 mg/kg", "value": 100, "unit": "%"},
      {"measurement": "Solubility in the methyl cellulose solvent", "setting": "[6]", "value": "not soluble"},
      {"measurement": "Inhibition of phase 1 (acute) pain response", "setting": "[7]", "value": "complete inhibition"},
      {"measurement": "Inhibition of phase 2 (inflammatory) pain response", "setting": "[7]", "value": "complete inhibition"},
      {"measurement": "Time of peak anticonvulsant activity", "setting": "[8]; after p.o. administration of 1 mg/kg", "value": "one-hour"},
      {"measurement": "Time of peak activity post administration", "setting": "[8]; oral, 1 mg/kg, rat MES and SCMET time course", "value": "between 30 minutes and two hours"},
      {"measurement": "TOX observation code", "setting": "[9]; 1 mg/kg SOL, 0.5 h", "value": "4/4 (T)^2"},
      {"measurement": "TOX observation code", "setting": "[9]; 1 mg/kg SOL, 4.0 h", "value": "2/2 (T)"},
      {"measurement": "TOX observation code", "setting": "[9]; 3 mg/kg SUS, 4.0 h", "value": "4/4 (T)"},
      {"measurement": "TOX observation code", "setting": "[9]; 10 mg/kg SUS, 4.0 h", "value": "2/2 (T)"},
      {"measurement": "TOX observation code", "setting": "[9]; 30 mg/kg SUS, 0.5 h", "value": "4/4 (D)^3"},
      {"measurement": "TOX observation code", "setting": "[9]; 100 mg/kg SUS, 0.5 h", "value": "8/8 (D)"},
      {"measurement": "TOX observation code", "setting": "[9]; 300 mg/kg SUS, 0.5 h", "value": "4/4 (D)"},
      {"measurement": "TD50", "setting": "[9]; mice", "value": 0.83, "unit": "mg/kg"},
      {"measurement": "TOX N/F (mice showing an effect / mice tested)", "setting": "[9]; 0.1 mg/kg, 4 h", "value": "0/4"},
      {"measurement": "TOX N/F (mice showing an effect / mice tested)", "setting": "[9]; 0.3 mg/kg, 4 h", "value": "0/4"},
      {"measurement": "TOX N/F (mice showing an effect / mice tested)", "setting": "[9]; 1 mg/kg, 0.5 h", "value": "4/4 (T)^2"},
      {"measurement": "TOX N/F (mice showing an effect / mice tested)", "setting": "[9]; 1 mg/kg, 4 h", "value": "2/2 (T)"},
      {"measurement": "TOX N/F (mice showing an effect / mice tested)", "setting": "[9]; 3 mg/kg, 0.5 h", "value": "8/8"},
      {"measurement": "TOX N/F (mice showing an effect / mice tested)", "setting": "[9]; 3 mg/kg, 4 h", "value": "4/4 (T)"},
      {"measurement": "TOX N/F (mice showing an effect / mice tested)", "setting": "[9]; 10 mg/kg, 0.5 h", "value": "4/4"},
      {"measurement": "TOX N/F (mice showing an effect / mice tested)", "setting": "[9]; 10 mg/kg, 4 h", "value": "2/2 (T)"},
      {"measurement": "TOX N/F (mice showing an effect / mice tested)", "setting": "[9]; 30 mg/kg, 0.5 h", "value": "4/4 (D)^3"},
      {"measurement": "TOX N/F (mice showing an effect / mice tested)", "setting": "[9]; 100 mg/kg, 0.5 h", "value": "8/8 (D)"},
      {"measurement": "TOX N/F (mice showing an effect / mice tested)", "setting": "[9]; 300 mg/kg, 0.5 h", "value": "4/4 (D)"},
      {"measurement": "Protection in the mouse 6 Hz test (FIG. 1)", "setting": "[10]; 0.8 mg/kg", "value": "time-dependent protection"},
      {"measurement": "N/F, Time to Peak Effect", "setting": "[10]; 0.25 h", "value": "1/4"},
      {"measurement": "N/F, Time to Peak Effect", "setting": "[10]; 0.5 h", "value": "1/4"},
      {"measurement": "N/F, Time to Peak Effect", "setting": "[10]; 1.0 h", "value": "4/4"},
      {"measurement": "N/F, Time to Peak Effect", "setting": "[10]; 2.0 h", "value": "2/4"},
      {"measurement": "N/F, Time to Peak Effect", "setting": "[10]; 4.0 h", "value": "0/4"},
      {"measurement": "Protection against 6 Hz seizures (FIG. 2)", "setting": "[10]; mouse, in vivo", "value": "dose-dependent protection"},
      {"measurement": "COMMENT (observed effects)", "setting": "[10]; mouse, in vivo, 0.18 mg/kg", "value": "Minimal motor impairment"},
      {"measurement": "COMMENT (observed effects)", "setting": "[10]; mouse, in vivo, 0.2 mg/kg", "value": "Tremors"},
      {"measurement": "COMMENT (observed effects)", "setting": "[10]; mouse, in vivo, 0.35 mg/kg", "value": "Minimal motor impairment"}
    ]},
    {"smiles": "NC(=O)N1c2ccccc2C=Cc2ccccc21", "note": "[carbamazepine]", "values": [
      {"measurement": "Efficacy in the 6 Hz psychomotor seizure model", "setting": "[1]", "value": "limited efficacy"}
    ]},
    {"smiles": "O=C1NC(=O)C(c2ccccc2)(c2ccccc2)N1", "note": "[phenyloin]", "values": [
      {"measurement": "Efficacy in the 6 Hz psychomotor seizure model", "setting": "[1]", "value": "limited efficacy"}
    ]},
    {"smiles": "CC1(C)O[C@@H]2[C@@H](CO[C@@]3(COS(N)(=O)=O)OC(C)(C)O[C@@H]23)O1", "note": "[topiramate]", "values": [
      {"measurement": "Efficacy in the 6 Hz psychomotor seizure model", "setting": "[1]", "value": "limited efficacy"}
    ]}
  ]
}
